Laboratory results reported in article PMC5727842, “Antioxidant and Antidiabetic Effects of Flavonoids: A Structure-Activity Relationship Based Study” (BioMed Research International, 2017).

How the values were obtained:
[1] = DPPH radical scavenging assay; details: 30 min, 517 nm, mean ± SEM (n = 3)
Experimental: Each sample's stock solution was diluted to final concentrations of 1000–0.4889 μg/mL in MeOH. A total of 1 mL of a 0.3 mM DPPH methanolic solution was added to 2.5 mL of sample solution of different concentrations and allowed to react at room temperature. After 30 min, the absorbance (Abs) values were measured at 517 nm with a microplate reader (Tecan NanoQuant Infinite M200, Switzerland) and converted into the percentage antioxidant activity using the following equation described previously: (1) % antioxidant activity=100−Abssample−Abssample blank/Abscontrol−Abscontrol blank×100. MeOH + compound solution was used as a blank, while DPPH solution plus MeOH was used as a negative control. The positive controls were DPPH solution plus 1 mM ascorbic acid. The IC50 values were calculated by linear regression of plots. The average percent of scavenging capacity was taken from three replicates.

DPP-4 = molecular target: T1, DPP-4 (Homo sapiens, UniProt P27487); assay: Dipeptidyl peptidase IV (DPP-4) inhibitory assay; format: biochemical; details: Table 3; mean ± SEM (n = 3); NA: not active
T1 construct: purchased Cayman (Michigan, USA)
T1 sequence (P27487 whole entry): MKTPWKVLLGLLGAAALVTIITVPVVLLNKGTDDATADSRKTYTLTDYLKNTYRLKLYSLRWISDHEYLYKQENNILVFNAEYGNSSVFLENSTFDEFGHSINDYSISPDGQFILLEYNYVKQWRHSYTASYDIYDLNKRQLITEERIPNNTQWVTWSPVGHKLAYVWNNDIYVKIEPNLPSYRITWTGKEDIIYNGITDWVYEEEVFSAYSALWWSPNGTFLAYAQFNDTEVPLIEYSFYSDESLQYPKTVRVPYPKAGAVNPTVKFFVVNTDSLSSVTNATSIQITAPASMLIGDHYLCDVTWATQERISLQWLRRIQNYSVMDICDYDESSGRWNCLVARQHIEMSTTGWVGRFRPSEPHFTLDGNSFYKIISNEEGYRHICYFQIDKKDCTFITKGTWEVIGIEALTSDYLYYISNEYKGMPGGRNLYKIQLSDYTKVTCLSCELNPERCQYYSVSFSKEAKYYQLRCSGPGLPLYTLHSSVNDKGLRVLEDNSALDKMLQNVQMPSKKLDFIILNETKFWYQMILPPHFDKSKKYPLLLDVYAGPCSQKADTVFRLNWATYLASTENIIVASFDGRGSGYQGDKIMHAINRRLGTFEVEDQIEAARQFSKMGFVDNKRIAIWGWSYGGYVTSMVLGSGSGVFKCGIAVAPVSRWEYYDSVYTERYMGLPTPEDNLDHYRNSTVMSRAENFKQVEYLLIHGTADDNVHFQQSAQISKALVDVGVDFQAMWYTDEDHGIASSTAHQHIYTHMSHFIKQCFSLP
Experimental: Dipeptidyl peptidase (IV) inhibitors work by inhibiting the action of this enzyme, thereby prolonging the activity of incretins that play an important role in insulin secretion and blood glucose control regulation. DPP-4 inhibitory assay was performed as per the standard method (Cayman, USA). Firstly, 1 mg of sample was dissolved in 10% of DMSO and MeOH as the stock solution. For initial activity (100%), 10 μL of MeOH, 30 μL of diluted assay buffer, and 10 μL of diluted DPP-4 (Cayman, USA) were added to 96-well microplate. […] For background well, 10 μL of MeOH and 40 μL of diluted assay buffer were added. Then, 10 μL of prepared sample and 30 μL of diluted assay buffer were added with 10 μL of diluted DPP-4. After that, 50 μL of substrate solution was added to all wells to initiate the reaction and further incubated in the dark at 37°C for 30 min. Finally, plate was read at 360 nm of excitation wavelength and 465 nm of emission wavelength using fluorescence microplate reader (Perkin Elmer, Germany). All determinations were done in triplicate and half maximal concentration (IC50) values were calculated from the percentage of inhibition based on the linear regression analysis. The equation given below was applied to calculate the inhibitory activity (%):(5) Inhibitory activity%=Initial Activity−Sample/Initial Activity×100%.
For DPP-4 inhibitory assay, the reaction is based on the cleavage of the peptide bond by DPP releasing the free Gly-Pro-aminomethylcoumarin group, a fluorogenic substrate resulting in fluorescence excitation and emission.

Row | SMILES | IC50 DPPH [1] | IC50 (DPP-4)
1 | COc1cc(O)c2c(=O)cc(-c3ccccc3)oc2c1 [Techtochrysin, 5-Hydroxy-7-methoxyflavone] | >100^B µg/ml | > 373 µM
2 | O=c1cc(-c2ccc(O)c(O)c2)oc2c(O)c(O)cc(O)c12 [Hypolaetin, 3′,4′,5,7,8-Pentahydroxyflavone] | 3.69 ± 0.11^Ha µg/ml | 115 µM
